This note sets out measurements from publication PMC11729425 (ACS Pharmacology & Translational Science, 2024).

Assay [1] deals with immortalized mouse C2C12 myoblasts. Nature of the assay: Lipid species (ceramides) in C2C12 cells, LC-MS/MS. It is filed as cell-based. On the procedure: (§1) (A) Schematic representation of the de novo sphingolipid synthesis pathway. (B) Chemical structures of myriocin (MYR) and ALT-007. (C) Heatmap analysis comparing the effects of treatments with the indicated concentrations of MYR and ALT-007 on lipid species in C2C12 cells. N = 3 per group. Data are shown as log2 fold change. (D) Body weight curves of mice treated with ALT-007 or vehicle (4 mg/kg/d for 10 days, in the food). (E) Mean food consumption measurement throughout the treatment. (F) Plasma levels of aspartate transaminase (AST), (G) alanine transaminase (ALT) and (H) creatine kinase (CK) after 10 days of treatment with ALT-007 at 4 mg/kg/day. (I) Ceramide levels measured in the gastrocnemius muscle after 10 days of treatment. N = 8 per group. Quantitative data are expressed as median with min to max values. *P < 0.05, **P < 0.01, ***P < 0.001. […]
(§2) ESI source conditions were used as follows: dry gas temperature, 230 °C; nebulizer, 35 psi and flow rate of 14 L min^–1; sheath gas temperature, 400 °C and flow rate of 12 L min^–1; nozzle voltage, 500 V; and capillary voltage, 4000 V. Dynamic multiple reaction monitoring was used as the acquisition mode with a total cycle time of 500 ms. […] Raw LC–MS/MS data were processed applying Agilent Quantitative Analysis software (version B.07.00, MassHunter Agilent Technologies). […]

The subject of assay [2] is ceramide levels in the gastrocnemius muscle. Nature of the assay: Ceramide levels in gastrocnemius muscle after 10 days of treatment. It is filed as in vivo, mice. The following applies: 4 mg/kg/d in the food. On the procedure: as §1, §2
The subject of another assay is Aged C57BL/6J mice. Nature of the assay: Metabolic cages (CLAMS): energy expenditure and activity. It is filed as in vivo, C57BL/6JRj mice. The following applies: 1 mg/kg in the food, week 19, CLAMS. How it is done: Energy expenditure and activity during day and night were measured using the CLAMS monitoring system (Columbus instruments). Mice were housed in metabolic cages for 48 h.

Molecules are shown by their SMILES.

With `COc1cc(C(=O)N2CC[C@H](NC(=O)c3ccccc3OC(F)(F)F)c3c2cnn3C(C)C)cnc1OC` [ALT-007], the “potency in lowering ceramide species” value in assay [1] (C2C12 myoblasts, compared to Myriocin) is reported as “superior potency compared to Myriocin”. Also, the “ceramide levels in C2C12 myoblasts” value in assay [1] (concentration of 10 nM) is “lower ceramide levels”. Further, the “ceramide levels in the gastrocnemius muscle” value in assay [2] is reported as “effectively decreased ceramide levels with a stronger effect on very long-chain (VLC) species”. Also, the “energy expenditure (kCal/h) at night” value with Aged C57BL/6J mice is reported as “significant increase”. Further, the global physical activity entry with Aged C57BL/6J mice (vs aged control) is reported as “completely restored the decline in global physical activity”.
